{"source": "patent US8101761B2", "about": "“(E)-N-{3-[1-(8-fluoro-11H-10-OXA-1-AZA-dibenzo [A,D] cyclohepten-5ylidene)-propyl]-phenyl}-methanesulfonamide as glucocorticoid receptor modulator for the treatment of rheumatoid arthritis” (Eli Lilly and Company, priority 2008, dated 2012)", "key": {"[1]": {"system": "carrageenan-induced paw edema in male Sprague-Dawley rats", "experiment": "Carrageenan-induced paw edema (CPE) model", "type": "in vivo", "conditions": "rat, oral gavage 2 h before carrageenan, paws taken 3 h after, mean of 5 determinations", "from_the_text": "Carrageenans are a group of polysaccharides which can induce an acute inflammatory response in animals. Cardinal signs of inflammation including edema, hyperalgesia and erythema are developed in the injection site immediately following injection. The CPE model is a recognized model of inflammation and can be used to evaluate the anti-inflammatory effects of glucocorticoid receptor ligands.\nTo evaluate the anti-inflammatory effects of Compound (I), the compound is formulated in a vehicle comprising 0.5% carboxymethyl cellulose and 0.25% Tween 80 then administered orally via gavage to male Sprague-Dawley rats (180-200 g). For comparison, prednisolone may be administered orally in the same vehicle. Two hours later, 1% carrageenan in 50 μl of 0.9% pyrogen free saline is injected into the subplantar regions of the right hind paw. Rats are euthanized by CO2 at 3 hours after the carrageenan injection. Paws are removed then weighed using a microbalance. Paws are then dissected by making several cuts on the paw surface and immediately immersing into liquid nitrogen until frozen. Frozen paws are then centrifuged to extract the exudates. Exudate levels of IL-1β, a cytokine generated during the inflammatory response is then measured by ELISA according to manufacturers instructions. Total paw protein is also measured using a protein assay kit and the absolute level of IL-1β is normalized to yield a concentration value of ng IL-1β/mg total protein."}, "[2]": {"system": "serum osteocalcin in male Swiss-Webster mice", "experiment": "Serum osteocalcin assay", "type": "in vivo, mouse", "conditions": "oral, seven days, 3 mg/Kg/day Compound (I) vs 10 mg/Kg/day prednisolone, serum 24 h after last dose", "from_the_text": "Bone loss/osteoporosis and the resulting increased risk of fracture is a common and significant adverse effect that results from glucocorticoid therapy. Glucocorticoid induced osteoporosis is believed to result, at least in part, from an inhibition of bone formation. The measurement of serum osteocalcin, a biological marker of bone synthesis, is a recognized tool for assessing the adverse effects of glucocorticoid therapy on bone.\nTo assess the effects of Compound (I) on bone formation, Compound (I) is formulated in a vehicle comprising 5% carboxymethyl cellulose and 0.25% Tween 80 and administered orally via gavage to sixteen week old male Swiss-Webster mice (Harlan Industries, Indianapolis) for seven days. For comparison, prednisolone is administered orally in the same vehicle. Serum is collected 24 hours after the last dose and osteocalcin levels are determined using a competitive radioimmunoassay modified to a 96 well format. […] The filters are punched and the radioactivity quantitated on a gamma counter. Radioactivity detected on the filters from test samples is inversely proportional to serum osteocalcin concentration. […]"}}, "note": "Where two headings read alike, the source gives them in different places.", "data": [{"smiles": "CC/C(=C1\\c2ccc(F)cc2OCc2ncccc21)c1cccc(NS(C)(=O)=O)c1", "note": "[Compound (I), (E)-N-{3-[1-(8-Fluoro-11H-10-oxa-1-aza-dibenzo[a,d]cyclohepten-5-ylidene)-propyl]-phenyl}-methanesulfonamide]", "values": [{"measurement": "ED50", "setting": "[1]; read-out: ED50, inhibition of carrageenan induced paw weight gain", "value": "~2.8", "unit": "mg/kg"}, {"measurement": "ED50", "setting": "[1]; read-out: ED50, reduction of paw exudate levels of IL-1β", "value": "~3.2", "unit": "mg/kg"}, {"measurement": "reduction in serum osteocalcin levels", "setting": "[2]", "value": "less reduction in serum osteocalcin levels than prednisolone"}]}]}
